One compound from patent US10251902B2, “Pharmaceutical composition for treating or preventing neuropsychiatric disease, containing flavone-6-C-glucose derivatives as active ingredients” (priority 2013, dated 2019) can be followed below.

Common to all, as to type: in vivo, ICR mice
Assay [1] concerns anxiety symptoms in a normal status. In words: Marble burying test. As to conditions: swertisin 10 mg/kg. How it is done:
Six-week old ICR mice in about 26 g to 28 g (Orientbio Inc, Republic of Korea) were received water and feed without constraint and adapted for 5 days under an environment having about 23±1° C. of temperature, about 60±10% of humidity and 12-hour light/dark cycle (animal laboratory at College of Pharmacy, Kyung-Hee University), and then used for the experiment.
As a method of measuring alleviation of anxiety symptoms in a normal status, the marble burying test was conducted based on the nature of mice that they dig when feel anxiety. Inside of a cage in size of 40 cm s 27 cm s 18 cm was covered with straw to the height of 4 cm, and 25 marbles having same pattern were arranged at intervals of 3 cm. Two groups (10 mice per each group) were prepared as the drug administration group 1, wherein swertisin, which is one of the flavone-6-C-β-D-glucose derivatives prepared in Example 3, was administered, and the control 1. […]
After 60 minutes of administration, mice of the drug administration group 1 and the control 1 were carefully located in the cage having the marbles and the mice were allowed to move freely for 30 minutes. After 30 minutes, the number of buried marbles under straw was counted. […] The more the number of buried marbles, it was assessed that the laboratory animal feels anxiety severer (Broekkamp, C L. et al., Eur J Pharmacol., 126, pp 223-229, 1986).

Assay [2] relates to pentobarbital-induced sleep. In words: Sleep-inducing test (pentobarbital). The following applies: swertisin 10 mg/kg. The protocol:
Six-week old ICR mice in about 26 g to 28 g (Orientbio Inc, Republic of Korea) were received water and feed without constraint and adapted for 5 days under an environment having about 23±1° C. of temperature, about 60±10% of humidity and 12-hour light/dark cycle (animal laboratory at College of Pharmacy, Kyung-Hee University), and then used for the experiment. Foods were blocked at 24 hours before the test.
The mice prepared in 1) were divided into […] (10 mice per each group) including the drug administration group 1, wherein swertisin was administered, and the controls 1 and 2. Swertisin prepared in Example 3 was dissolved in 10% Tween 80 (Polyoxyethylene sorbitan monooleate: Sigma, U.S.A.) and administered to the drug administration group 1 in an amount of 10 mg/kg. Meanwhile, 0.15 mL of 10% Tween 80 was administered to the control 1.
After 1 hour of administration, pentobarbital was dissolved in a saline solution and intraperitoneally administered to the mouse in an amount of 60 mg/kg. The mouse was located in the cage. At this time, straw was laid in the cage only enough to cover the floor, and only one mouse was located in the cage for observation. […]

The subject of a further assay is mouse model of stroke. Put plainly: Y-maze test in mouse model of stroke. The following applies: for Alternation Behavior (%): Table 11, test on 7th day; for Total Entry: Table 12. The protocol:
Seven-week old ICR mice in about 30 g to 35 g (Orientbio Inc, Republic of Korea) were received water and feed without constraint and adapted for 5 days under an environment having about 23±1° C. of temperature, about 60±10% of humidity and 12-hour light/dark cycle (animal laboratory at College of Pharmacy, Kyung-Hee University), and then used for the experiment.
The laboratory animal in 1) was located in an operating room, adapted for 60 minutes, and anesthetized in a space providing anaesthetic gasses (nitrous oxide: 70%; oxygen: 30%; isoflurane: 2.0%). Pain reflex was examined to confirm the anesthesia. The laboratory animal was lain down straight on an operating table, and fixed its upper limb and head. Skin from the spot, where the upper limb and the center line meet, was incised as 1.5 cm to expose the both common carotid arteries by using tweezers while not damaging the tissues. Tissues and nerves attached to the exposed carotid arteries were separated and fixed with an aneurysm clip. The clip was removed after 15 minutes and reperfused, and the incised area was sutured with sutures. After the suture, the laboratory animal was immediately moved to a recovery room (32-33° C., O2 enrichment condition) and kept until it recovers from anesthesia. Observation on its weight and status was conducted once a day for 4 days after the operation.
Administration of the Swertia japonica extract prepared in Example 1 was initiated to the mice prepared in the 1) immediately after the operation 3), and kept administering at the same time for 7 days. Five groups (5 mice per each group) were prepared as drug administration groups 1, 2 and 3, wherein the Swertia japonica extract prepared in Example 1 was administered thereto; and controls 1 and 2. 50 mg/kg, 100 mg/kg and 200 mg/kg of the Swertia japonica extract was administered to the drug administration groups 1, 2 and 3 respectively; and 0.15 mL of Tween 80 was administered to the controls 1 and 2 respectively. At the 7th day from the initial administration, the Y-maze test was conducted for the drug administration groups 1 to 3 and the controls 1 to 2 in the same manner as Experimental Example 1-5.
After 60 minutes, mice of the drug administration groups 1-3 and the controls 1-2 were carefully located on each branches of the Y-maze, which was divided as A, B and C respectively, and let the mice move freely for 8 minutes, and then recorded branches that mice have entered. The entrance was recorded when the entire body (i.e. including the tail) has completely entered. It was also recorded when the mice entered again into the branch that the mice have entered before. The result was converted into % via Equation 1.
Administration of swertisin prepared in Example 3 was initiated to the mice prepared in 1) immediately after the operation 3), and kept administering at the same time for 7 days. Five groups (5 mice per each group) were prepared as drug administration groups 1, 2 and 3, wherein swertisin prepared in Example 3 was administered thereto; and controls 1 and 2. 50 mg/kg, 100 mg/kg and 200 mg/kg of swertisin was administered to the drug administration groups 1, 2 and 3 respectively; and 0.15 mL of Tween 80 was administered to the controls 1 and 2 respectively. At the 7th day from the initial administration, the Y-maze test was conducted for the drug administration groups 1 to 3 and the controls 1 to 2 in the same manner as Experimental Example 1.

The mark [3] stands for this setting: swertisin 50 mg/kg for 7 days after stroke operation.
Where [4] appears, read: swertisin 100 mg/kg for 7 days after stroke operation.
[5] abbreviates: swertisin 200 mg/kg for 7 days after stroke operation.

As for `COc1cc2oc(-c3ccc(O)cc3)cc(=O)c2c(O)c1[C@@H]1O[C@H](CO)[C@@H](O)[C@H](O)[C@H]1O` [swertisin], the “number of the buried marbles compared to that of the control 1, in words” value in assay [1] is listed as “decreased”. Further, in assay [1] (60 minutes after administration, 30 minutes in cage, 25 marbles), the “Number of Buried Marbles” value turned out to be 21.78 ± 1.856. The “total sleep time compared to the control 1, in words” value in assay [2] (pentobarbital 60 mg/kg i.p.) is on record as “remarkably decreased”. In addition, the “Total Sleep Time” value in assay [2] (pentobarbital 60 mg/kg i.p. 1 hour after administration) is 94.47 ± 21.83 min. The “Alternation Behavior (%)” value is given as 56.10 ± 7.431% in the assay with mouse model of stroke (setting [3]), 57.58 ± 12.86% in the assay on mouse model of stroke (setting [4]) and 70.46 ± 15.74% in the assay with mouse model of stroke (setting [5]). Further, the “Total Entry” value with mouse model of stroke (setting [3]) came to 24.14 ± 2.478; in the assay with mouse model of stroke (setting [4]), 28.50 ± 6.364; with mouse model of stroke (setting [5]), 22.00 ± 5.958.
